This passage reports Dmax and DC50 results from patent US20260356830A1, “COMPOUNDS FOR MODULATING RET PROTEIN” (Bristol-Myers Squibb Company, priority 2022, published 2026).

The target in this experiment is T1, CCDC6-RET (Homo sapiens, UniProt P07949+Q16204+Q96SW2).
T1 construct: CCDC6 (natural N-terminal fusion partner, UniProt Q16204); endogenous in cells; host or cells: TPC-1 (parental, papillary thyroid carcinoma)
Briefly: Cellular RET degradation, AlphaLISA, TPC-1 cell line. To be noted: for Dmax: TPC1, human, 24 h, read-out: Cell Density TPC-1/CCDC6-RET Ymax %; for DC50: read-out: Cell Density TPC-1/CCDC6-RET DC50, half-maximal degradation concentration, TPC-1 (CCDC6-RET), 24 hrs. The experiment is classed as cell-based. The method, boiled down:
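Luminescent AlphaLISA read of RET abundance in lysates after 24 h compound exposure (37 °C, 2% FBS DMEM) of CCDC6-RET-bearing TPC-1 cells. % degradation relative to DMSO (high) and media (low) controls, fitted to 4-parameter logistic curve for DC50 and Ymax.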

T1 sequence (Q16204+P07949 fused): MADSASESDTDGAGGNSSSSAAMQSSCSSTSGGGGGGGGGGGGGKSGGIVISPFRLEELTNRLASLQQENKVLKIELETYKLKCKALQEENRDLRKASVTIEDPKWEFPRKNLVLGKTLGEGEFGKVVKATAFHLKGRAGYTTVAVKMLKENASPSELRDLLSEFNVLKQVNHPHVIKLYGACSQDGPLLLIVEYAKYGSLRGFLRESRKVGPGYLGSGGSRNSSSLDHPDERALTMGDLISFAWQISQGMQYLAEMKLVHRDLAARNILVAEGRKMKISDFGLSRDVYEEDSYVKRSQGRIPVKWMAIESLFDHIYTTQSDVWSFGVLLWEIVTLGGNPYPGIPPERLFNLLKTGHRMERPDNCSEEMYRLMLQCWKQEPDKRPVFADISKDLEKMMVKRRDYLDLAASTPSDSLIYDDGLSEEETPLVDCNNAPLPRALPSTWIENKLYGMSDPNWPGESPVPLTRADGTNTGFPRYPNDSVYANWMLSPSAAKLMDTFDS
T1 sequence (Q96SW2 whole entry, the tested form may be a part): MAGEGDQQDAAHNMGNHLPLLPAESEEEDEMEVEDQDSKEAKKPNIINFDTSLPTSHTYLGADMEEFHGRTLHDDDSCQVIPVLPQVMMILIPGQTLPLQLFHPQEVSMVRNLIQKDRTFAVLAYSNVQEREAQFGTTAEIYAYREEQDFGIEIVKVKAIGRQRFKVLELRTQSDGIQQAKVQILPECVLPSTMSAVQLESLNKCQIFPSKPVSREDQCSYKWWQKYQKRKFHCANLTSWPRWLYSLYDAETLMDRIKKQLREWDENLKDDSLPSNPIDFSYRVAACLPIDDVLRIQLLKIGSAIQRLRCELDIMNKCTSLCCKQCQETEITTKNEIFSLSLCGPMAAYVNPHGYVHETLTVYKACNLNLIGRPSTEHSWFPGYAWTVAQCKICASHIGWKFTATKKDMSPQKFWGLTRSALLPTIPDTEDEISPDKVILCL
T1 sequence (Q16531 whole entry partner, the tested form may be a part): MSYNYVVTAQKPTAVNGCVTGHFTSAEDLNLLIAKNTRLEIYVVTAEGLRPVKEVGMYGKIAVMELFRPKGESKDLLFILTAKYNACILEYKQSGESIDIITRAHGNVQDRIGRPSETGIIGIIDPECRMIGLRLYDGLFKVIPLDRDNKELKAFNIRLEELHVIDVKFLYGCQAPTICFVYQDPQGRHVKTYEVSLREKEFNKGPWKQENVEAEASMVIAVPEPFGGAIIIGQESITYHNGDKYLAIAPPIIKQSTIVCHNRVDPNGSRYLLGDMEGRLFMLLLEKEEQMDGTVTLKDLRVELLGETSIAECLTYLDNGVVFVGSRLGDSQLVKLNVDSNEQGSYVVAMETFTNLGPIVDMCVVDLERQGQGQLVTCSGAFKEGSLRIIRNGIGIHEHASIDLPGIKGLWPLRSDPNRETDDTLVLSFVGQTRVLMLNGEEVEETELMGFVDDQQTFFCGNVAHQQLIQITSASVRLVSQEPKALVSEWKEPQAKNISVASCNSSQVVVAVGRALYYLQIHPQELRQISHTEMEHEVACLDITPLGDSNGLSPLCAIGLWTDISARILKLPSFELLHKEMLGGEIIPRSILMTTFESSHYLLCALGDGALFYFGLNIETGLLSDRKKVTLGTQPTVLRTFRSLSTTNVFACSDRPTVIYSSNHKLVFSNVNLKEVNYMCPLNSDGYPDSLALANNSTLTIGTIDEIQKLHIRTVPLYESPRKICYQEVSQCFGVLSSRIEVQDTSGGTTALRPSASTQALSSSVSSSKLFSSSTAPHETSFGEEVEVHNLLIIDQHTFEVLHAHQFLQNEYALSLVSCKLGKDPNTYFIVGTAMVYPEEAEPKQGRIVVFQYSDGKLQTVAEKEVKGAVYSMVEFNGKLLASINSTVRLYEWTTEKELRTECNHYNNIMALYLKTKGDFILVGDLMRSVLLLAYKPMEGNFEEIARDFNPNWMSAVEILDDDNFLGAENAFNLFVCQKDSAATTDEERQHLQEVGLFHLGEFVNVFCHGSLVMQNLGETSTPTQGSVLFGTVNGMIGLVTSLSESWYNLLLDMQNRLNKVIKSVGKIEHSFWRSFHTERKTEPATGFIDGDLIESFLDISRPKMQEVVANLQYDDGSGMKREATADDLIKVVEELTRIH

Take `CCOc1cc(-c2ccc(N3CCC(CN4CCN(C(=O)CCCCN5CCN(c6ccc7c(N8CCC(=O)NC8=O)nn(C)c7c6)CC5)CC4)(NC(=O)c4cc(F)ccc4F)CC3)nc2)c2c(C#N)cnn2c1` [Example 40, N-(1-(5-(3-cyano-6-ethoxypyrazolo[1,5-a]pyridin-4-yl)pyridin-2-yl)-4-((4-(5-(4-(3-(2,4-dioxotetrahydropyrimidin-1(2H)-yl)-1-methyl-1H-indazol-6-yl)piperazin-1-yl)pentanoyl)piperazin-1-yl)methyl)piperidin-4-yl)-2,5-difluorobenzamide]: the Dmax was greater than 90% and the DC50 lay in the range of 2 to 10 nM.

In the case of `CCOc1cc(-c2ccc(N3CCC(Cc4ccccc4)(NC(=O)N4CCC(CN5CCC(c6ccc7c(c6)C(=O)N(C6CCC(=O)NC6=O)C7)CC5)CC4)CC3)nc2)c2c(C#N)cnn2c1` (centres unmarked) [Example 55], the Dmax lay within 60 to 90% and the DC50 is 2 to 10 nM.

`CCOc1cc(-c2ccc(N3CCC(CN(C(=O)CCCCN4CCC(c5ccc6c(c5)C(=O)N(C5CCC(=O)NC5=O)C6)CC4)C(C)C)(NC(=O)c4cc(F)ccc4F)CC3)nc2)c2c(C#N)cnn2c1` (centres unmarked) [Example 170, N-[1-(5-{3-cyano-6-ethoxypyrazolo[1,5-a]pyridin-4-yl}pyridin-2-yl)-4-[(5-{4-[2-(2,6-dioxopiperidin-3-yl)-3-oxo-2,3-dihydro-1H-isoindol-5-yl]piperidin-1-yl}-N-(propan-2-yl)pentanamido)methyl]piperidin-4-yl]-2,5-difluorobenzamide]: the Dmax lay within 60 to 90% and the DC50 was in the range of 100 to 2000 nM.

`CCOc1cc(-c2ccc(N3CCC(CN4CCC5(CC4)CCN(C(=O)COc4ccc6c(c4)CN(C4CCC(=O)NC4=O)C6=O)CC5)(NC(=O)c4cc(F)ccc4F)CC3)nc2)c2c(C#N)cnn2c1` (centres unmarked) [Example 99, N-[1-(5-{3-cyano-6-ethoxypyrazolo[1,5-a]pyridin-4-yl}pyridin-2-yl)-4-{[9-(2-{[2-(2,6-dioxopiperidin-3-yl)-1-oxo-2,3-dihydro-1H-isoindol-5-yl]oxy}acetyl)-3,9-diazaspiro[5.5]undecan-3-yl]methyl}piperidin-4-yl]-2,5-difluorobenzamide]: the Dmax was in the range of 60 to 90% and the DC50 is less than 2 nM.

With `CCOc1cc(-c2ccc(N3CCC(COCCN4CCN(C(=O)CCCCN5CCN(c6ccc7c(c6)CN(C6CCC(=O)NC6=O)C7=O)CC5)CC4)(NC(=O)c4cc(F)ccc4F)CC3)nc2)c2c(C#N)cnn2c1` (centres unmarked) [Example 35, N-[1-[5-(3-cyano-6-ethoxy-pyrazolo[1,5-a]pyridin-4-yl)-2-pyridyl]-4-[2-[4-[5-[4-[2-(2,6-dioxo-3-piperidyl)-1-oxo-isoindolin-5-yl]piperazin-1-yl]pentanoyl]piperazin-1-yl]ethoxymethyl]-4-piperidyl]-2,5-difluoro-benzamide], the Dmax is greater than 90% and the DC50 fell in the range of 10 to 100 nM.

`CCOc1cc(-c2ccc(N3CCC(CN4CCC5(CC4)CCN(C(=O)CCN4CCN(c6ccc7c(c6)CN(C6CCC(=O)NC6=O)C7=O)CC4)CC5)(NC(=O)c4cc(F)ccc4F)CC3)nc2)c2c(C#N)cnn2c1` (centres unmarked) [Example 87, N-[1-(5-{3-cyano-6-ethoxypyrazolo[1,5-a]pyridin-4-yl}pyridin-2-yl)-4-{[9-(3-{4-[2-(2,6-dioxopiperidin-3-yl)-1-oxo-2,3-dihydro-1H-isoindol-5-yl]piperazin-1-yl}propanoyl)-3,9-diazaspiro[5.5]undecan-3-yl]methyl}piperidin-4-yl]-2,5-difluorobenzamide]: the Dmax is greater than 90% and the DC50 is 2 to 10 nM.

Take `CCOc1cc(-c2ccc(N3CCC(NC(=O)c4cc(F)ccc4F)(C(=O)NCCCCN4CCN(c5ccc6c(c5)CN(C5CCC(=O)NC5=O)C6=O)CC4)CC3)nc2)c2c(C#N)cnn2c1` (centres unmarked) [Example 154, 1-(5-{3-cyano-6-ethoxypyrazolo[1,5-a]pyridin-4-yl}pyridin-2-yl)-4-(2,5-difluorobenzamido)-N-(4-{4-[2-(2,6-dioxopiperidin-3-yl)-1-oxo-2,3-dihydro-1H-isoindol-5-yl]piperazin-1-yl}butyl)piperidine-4-carboxamide]: the Dmax was 60 to 90% and the DC50 fell in the range of 10 to 100 nM.

For `CCOc1cc(-c2ccc(N3CCC(CN4CCN(C(=O)CCCCCCN5CCN(c6ccc7c(c6)CN(C6CCC(=O)NC6=O)C7=O)CC5)CC4)(NC(=O)c4ncccc4F)CC3)nc2)c2c(C#N)cnn2c1` (centres unmarked) [Example 2, N-(1-(5-(3-cyano-6-ethoxypyrazolo[1,5-a]pyridin-4-yl)pyridin-2-yl)-4-((4-(7-(4-(2-(2,6-dioxopiperidin-3-yl)-1-oxoisoindolin-5-yl)piperazin-1-yl)heptanoyl)piperazin-1-yl)methyl)piperidin-4-yl)-3-fluoropicolinamide], the Dmax fell in the range of 60 to 90% and the DC50 lay in the range of 2 to 10 nM.

As to `CCOc1cc(-c2ccc(N3CCC(CN4CCN(C(=O)CCCCCCNc5cccc(NC6CCC(=O)NC6=O)c5)CC4)(NC(=O)c4cc(F)ccc4F)CC3)nc2)c2c(C#N)cnn2c1` (centres unmarked) [Example 22, N-[1-(5-{3-cyano-6-ethoxypyrazolo[1,5-a]pyridin-4-yl}pyridin-2-yl)-4-({4-[7-({3-[(2,6-dioxopiperidin-3-yl)amino]phenyl}amino)heptanoyl]piperazin-1-yl}methyl)piperidin-4-yl]-2,5-difluorobenzamide], the Dmax fell in the range of 60 to 90% and the DC50 lay in the range of 10 to 100 nM.

`CCOc1cc(-c2ccc(N3CCC(CN4CCN(C(=O)CCCCCCCCNc5ccc6c(C7CCC(=O)NC7=O)nn(C)c6c5)CC4)(NC(=O)c4cc(F)ccc4F)CC3)nc2)c2c(C#N)cnn2c1` (centres unmarked) [Example 25, N-[1-(5-{3-cyano-6-ethoxypyrazolo[1,5-a]pyridin-4-yl}pyridin-2-yl)-4-{[4-(9-{[3-(2,6-dioxopiperidin-3-yl)-1-methyl-1H-indazol-6-yl]amino}nonanoyl)piperazin-1-yl]methyl}piperidin-4-yl]-2,5-difluorobenzamide]: the Dmax is greater than 90% and the DC50 was in the range of 2 to 10 nM.

For `CCOc1cc(-c2ccc(N3CCC(CN(C(=O)CCCCCCN4CCN(c5ccc6c(c5)CN(C5CCC(=O)NC5=O)C6=O)CC4)C(C)C)(NC(=O)c4cc(F)ccc4F)CC3)nc2)c2c(C#N)cnn2c1` (centres unmarked) [Example 165, N-[1-(5-{3-cyano-6-ethoxypyrazolo[1,5-a]pyridin-4-yl}pyridin-2-yl)-4-[(7-{4-[2-(2,6-dioxopiperidin-3-yl)-1-oxo-2,3-dihydro-1H-isoindol-5-yl]piperazin-1-yl}-N-(propan-2-yl)heptanamido)methyl]piperidin-4-yl]-2,5-difluorobenzamide], the Dmax was greater than 90% and the DC50 is less than 2 nM.

Regarding `CCOc1cc(-c2ccc(N3CCC(CN4CCN(C(=O)CCCCCCCCCCCCNC(=O)COc5cccc6c5CN(C5CCC(=O)NC5=O)C6=O)CC4)(NC(=O)c4cc(F)ccc4F)CC3)nc2)c2c(C#N)cnn2c1` (centres unmarked) [Example 29, N-[1-(5-{3-cyano-6-ethoxypyrazolo[1,5-a]pyridin-4-yl}pyridin-2-yl)-4-({4-[13-(2-{[2-(2,6-dioxopiperidin-3-yl)-1-oxo-2,3-dihydro-1H-isoindol-4-yl]oxy}acetamido)tridecanoyl]piperazin-1-yl}methyl)piperidin-4-yl]-2,5-difluorobenzamide], the Dmax was greater than 90% and the DC50 lay within 10 to 100 nM.

With `CCOc1cc(-c2ccc(N3CCC(CN4CCN(C(=O)CCCCN5CCN(c6ccc7c(c6)C(=O)N(C6CCC(=O)NC6=O)C7)CC5)CC4)(NC(=O)c4cc(F)ccc4F)CC3)nc2)c2c(C#N)cnn2c1` (centres unmarked) [Example 13, N-(1-(5-(3-cyano-6-ethoxypyrazolo[1,5-a]pyridin-4-yl)pyridin-2-yl)-4-((4-(5-(4-(2-(2,6-dioxopiperidin-3-yl)-3-oxoisoindolin-5-yl)piperazin-1-yl)pentanoyl)piperazin-1-yl)methyl)piperidin-4-yl)-2,5-difluorobenzamide], the Dmax was greater than 90% and the DC50 was less than 2 nM.

As for `CCOc1cc(-c2ccc(N3CCC(CN4CCC(CN5CCN(c6ccc7c(c6)CN(C6CCC(=O)NC6=O)C7=O)CC5)CC4)(NC(=O)c4cc(F)ccc4F)CC3)nc2)c2c(C#N)cnn2c1` (centres unmarked) [Example 69, N-(1-(5-(3-cyano-6-ethoxypyrazolo[1,5-a]pyridin-4-yl)pyridin-2-yl)-4-((4-((4-(2-(2,6-dioxopiperidin-3-yl)-1-oxoisoindolin-5-yl)piperazin-1-yl)methyl)piperidin-1-yl)methyl)piperidin-4-yl)-2,5-difluorobenzamide], the Dmax was greater than 90% and the DC50 is less than 2 nM.

With `CCOc1cc(-c2ccc(N3CCC(CN4CCN(CC5CCN(C(=O)COc6ccc7c(c6)CN(C6CCC(=O)NC6=O)C7=O)CC5)CC4)(NC(=O)c4cc(F)ccc4F)CC3)nc2)c2c(C#N)cnn2c1` (centres unmarked) [Example 114, N-[1-(5-{3-cyano-6-ethoxypyrazolo[1,5-a]pyridin-4-yl}pyridin-2-yl)-4-[(4-{[1-(2-{[2-(2,6-dioxopiperidin-3-yl)-1-oxo-2,3-dihydro-1H-isoindol-5-yl]oxy}acetyl)piperidin-4-yl]methyl}piperazin-1-yl)methyl]piperidin-4-yl]-2,5-difluorobenzamide], the Dmax was in the range of 60 to 90% and the DC50 is less than 2 nM.

As for `CCOc1cc(-c2ccc(N3CCC(CN4CCN(CCOCCC(=O)N5CCN(c6ccc7c(c6)CN(C6CCC(=O)NC6=O)C7=O)CC5)CC4)(NC(=O)c4cc(F)ccc4F)CC3)nc2)c2c(C#N)cnn2c1` (centres unmarked) [Example 100, N-[1-(5-{3-cyano-6-ethoxypyrazolo[1,5-a]pyridin-4-yl}pyridin-2-yl)-4-({4-[2-(3-{4-[2-(2,6-dioxopiperidin-3-yl)-1-oxo-2,3-dihydro-1H-isoindol-5-yl]piperazin-1-yl}-3-oxopropoxy)ethyl]piperazin-1-yl}methyl)piperidin-4-yl]-2,5-difluorobenzamide], the Dmax is greater than 90% and the DC50 lay within 2 to 10 nM.
